# Experimental data: ChEMBL document CHEMBL4342417, “Design, synthesis and evaluation of novel phenothiazine derivatives as inhibitors of breast cancer stem cells” (Eur J Med Chem, 2019)
# pIC50: −log10 of the molar value. Activity calls are given as the source filed them. No cut-off for these calls is given here.
# Test system: MCF7
# Test: Antiproliferative activity against human MCF7 cells assessed as reduction in cell viability incubated for 2 days by MTT assay
# Type: functional, cell-based
# Settings: MCF7, 48 h
row,pIC50,SMILES
1,5.22,COCCN(CCCN1c2ccccc2Sc2ccc(SC)cc21)CCOC
2,< 4.30,COCCN(CCCN1c2ccccc2Sc2ccc(C(F)(F)F)cc21)CCOC
3,4.95,CN1CCN(CCCN2c3ccccc3Sc3ccc(C(F)(F)F)cc32)CC1 [TRIFLUOPERAZINE]
4,< 4.30,OCCN(CCO)CCCN1c2ccccc2Sc2ccccc21
5,4.44,CSc1ccc2c(c1)N(CCCN(CCO)CCO)c1ccccc1S2
6,4.53,COCCN(CCCN1c2ccccc2Sc2ccccc21)CCOC
7,4.47,OCCN(CCO)CCCN1c2ccccc2Sc2ccc(C(F)(F)F)cc21

# The next lines start with the molecule.
row,SMILES,pIC50
1,O=C1CC(c2ccc(O)cc2)Oc2cc(O)c(CN3CCN(CCCN4c5ccccc5Sc5ccccc54)CC3)c(O)c21 (stereo unspecified),< 4.30
2,O=C1CC(c2ccccc2)Oc2cc(O)c(CN3CCN(CCCN4c5ccccc5Sc5ccc(C(F)(F)F)cc54)CC3)c(O)c21 (stereo unspecified),< 4.30
3,CSc1ccc2c(c1)N(CCCN1CCN(Cc3c(O)cc4c(c3O)C(=O)CC(c3ccccc3)O4)CC1)c1ccccc1S2 (stereo unspecified),< 4.30
4,O=C1CC(c2ccccc2)Oc2cc(O)c(CN3CCN(CCCN4c5ccccc5Sc5ccccc54)CC3)c(O)c21 (stereo unspecified),< 4.30
5,CSc1ccc2c(c1)N(CCCN1CCN(Cc3c(O)cc4c(c3O)C(=O)CC(c3ccc(O)cc3)O4)CC1)c1ccccc1S2 (stereo unspecified),< 4.30
6,O=C(CCC(=O)N1CCN(CCCN2c3ccccc3Sc3ccccc32)CC1)OCC#CCOc1no[n+]([O-])c1S(=O)(=O)c1ccccc1,5.81

# Test system: MDA-MB-231
# Test: Antiproliferative activity against human MDA-MB-231 cells assessed as reduction in cell viability incubated for 2 days by MTT assay
# Type: functional, cell-based
# Settings: MDA-MB-231, 48 h
row,pIC50,SMILES
1,4.39,COCCN(CCCN1c2ccccc2Sc2ccc(SC)cc21)CCOC
2,< 4.30,COCCN(CCCN1c2ccccc2Sc2ccc(C(F)(F)F)cc21)CCOC
3,4.67,CN1CCN(CCCN2c3ccccc3Sc3ccc(C(F)(F)F)cc32)CC1 [TRIFLUOPERAZINE]
4,< 4.30,OCCN(CCO)CCCN1c2ccccc2Sc2ccccc21
5,4.99,CSc1ccc2c(c1)N(CCCN(CCO)CCO)c1ccccc1S2
6,4.35,COCCN(CCCN1c2ccccc2Sc2ccccc21)CCOC
7,5.22,OCCN(CCO)CCCN1c2ccccc2Sc2ccc(C(F)(F)F)cc21

# Second part, the molecule before the results:
row,SMILES,pIC50
1,CSc1ccc2c(c1)N(CCC1CCCCN1C)c1ccccc1S2 (stereo unspecified) [THIORIDAZINE],4.85
2,O=C1CC(c2ccc(O)cc2)Oc2cc(O)c(CN3CCN(CCCN4c5ccccc5Sc5ccccc54)CC3)c(O)c21 (stereo unspecified),< 4.30
3,O=C1CC(c2ccccc2)Oc2cc(O)c(CN3CCN(CCCN4c5ccccc5Sc5ccc(C(F)(F)F)cc54)CC3)c(O)c21 (stereo unspecified),< 4.30
4,CSc1ccc2c(c1)N(CCCN1CCN(Cc3c(O)cc4c(c3O)C(=O)CC(c3ccccc3)O4)CC1)c1ccccc1S2 (stereo unspecified),< 4.30
5,O=C1CC(c2ccccc2)Oc2cc(O)c(CN3CCN(CCCN4c5ccccc5Sc5ccccc54)CC3)c(O)c21 (stereo unspecified),< 4.30
6,CSc1ccc2c(c1)N(CCCN1CCN(Cc3c(O)cc4c(c3O)C(=O)CC(c3ccc(O)cc3)O4)CC1)c1ccccc1S2 (stereo unspecified),< 4.30
7,O=C(CCC(=O)N1CCN(CCCN2c3ccccc3Sc3ccccc32)CC1)OCC#CCOc1no[n+]([O-])c1S(=O)(=O)c1ccccc1,5.19

# Test system: SUM-159-PT
# Test: Inhibition of mammosphere formation in human SUM159 cells assessed as reduction in number of mammosphere at 2 uM incubated for 10 days by microscopic analysis
# Type: functional
# Settings: not given
row,SMILES,Activity
1,CN1CCN(CCCN2c3ccccc3Sc3ccc(C(F)(F)F)cc32)CC1 [TRIFLUOPERAZINE],12

# Test system: SUM-159-PT
# Test: Antiproliferative activity against human SUM159 cells assessed as reduction in cell viability incubated for 2 days by MTT assay
# Type: functional, cell-based
# Settings: 48 h
row,SMILES,pIC50
1,CSc1ccc2c(c1)N(CCC1CCCCN1C)c1ccccc1S2 (stereo unspecified) [THIORIDAZINE],4.84
2,COCCN(CCCN1c2ccccc2Sc2ccc(SC)cc21)CCOC,4.74
3,COCCN(CCCN1c2ccccc2Sc2ccc(C(F)(F)F)cc21)CCOC,4.52
4,CN1CCN(CCCN2c3ccccc3Sc3ccc(C(F)(F)F)cc32)CC1 [TRIFLUOPERAZINE],4.77
5,O=C1CC(c2ccc(O)cc2)Oc2cc(O)c(CN3CCN(CCCN4c5ccccc5Sc5ccccc54)CC3)c(O)c21 (stereo unspecified),< 4.30
6,O=C1CC(c2ccccc2)Oc2cc(O)c(CN3CCN(CCCN4c5ccccc5Sc5ccc(C(F)(F)F)cc54)CC3)c(O)c21 (stereo unspecified),< 4.30
7,OCCN(CCO)CCCN1c2ccccc2Sc2ccccc21,< 4.30
8,CSc1ccc2c(c1)N(CCCN1CCN(Cc3c(O)cc4c(c3O)C(=O)CC(c3ccccc3)O4)CC1)c1ccccc1S2 (stereo unspecified),< 4.30
9,O=C1CC(c2ccccc2)Oc2cc(O)c(CN3CCN(CCCN4c5ccccc5Sc5ccccc54)CC3)c(O)c21 (stereo unspecified),< 4.30
10,CSc1ccc2c(c1)N(CCCN1CCN(Cc3c(O)cc4c(c3O)C(=O)CC(c3ccc(O)cc3)O4)CC1)c1ccccc1S2 (stereo unspecified),4.49
11,O=C(CCC(=O)N1CCN(CCCN2c3ccccc3Sc3ccccc32)CC1)OCC#CCOc1no[n+]([O-])c1S(=O)(=O)c1ccccc1,5.55
12,CSc1ccc2c(c1)N(CCCN(CCO)CCO)c1ccccc1S2,4.61
13,COCCN(CCCN1c2ccccc2Sc2ccccc21)CCOC,4.45
14,OCCN(CCO)CCCN1c2ccccc2Sc2ccc(C(F)(F)F)cc21,4.34

# Test system: MCF7
# Test: Potency index, ratio of IC50 of TFP to IC50 of compound for antiproliferative activity against human MCF7 cells assessed as reduction in cell viability incubated for 2 days by MTT assay
# Type: functional
# Settings: not given
row,SMILES,Ratio IC50
1,O=C(CCC(=O)N1CCN(CCCN2c3ccccc3Sc3ccccc32)CC1)OCC#CCOc1no[n+]([O-])c1S(=O)(=O)c1ccccc1,7

# Test system: KG-1a
# Test: Antiproliferative activity against human KG1a cells assessed as reduction in cell viability incubated for 2 days by MTT assay
# Type: functional, cell-based
# Settings: 48 h
row,SMILES,pIC50
1,CSc1ccc2c(c1)N(CCC1CCCCN1C)c1ccccc1S2 (stereo unspecified) [THIORIDAZINE],5.22
2,CN1CCN(CCCN2c3ccccc3Sc3ccc(C(F)(F)F)cc32)CC1 [TRIFLUOPERAZINE],5.34

# Test system: SK-BR-3
# Test: Antiproliferative activity against human SKBR3 cells assessed as reduction in cell viability incubated for 2 days by MTT assay
# Type: functional, cell-based
# Settings: SK-BR-3, 48 h
row,pIC50,SMILES
1,4.50,COCCN(CCCN1c2ccccc2Sc2ccc(SC)cc21)CCOC
2,< 4.30,COCCN(CCCN1c2ccccc2Sc2ccc(C(F)(F)F)cc21)CCOC
3,4.80,CN1CCN(CCCN2c3ccccc3Sc3ccc(C(F)(F)F)cc32)CC1 [TRIFLUOPERAZINE]
4,< 4.30,OCCN(CCO)CCCN1c2ccccc2Sc2ccccc21
5,4.57,CSc1ccc2c(c1)N(CCCN(CCO)CCO)c1ccccc1S2
6,< 4.30,COCCN(CCCN1c2ccccc2Sc2ccccc21)CCOC
7,4.36,OCCN(CCO)CCCN1c2ccccc2Sc2ccc(C(F)(F)F)cc21

# The next lines start with the molecule.
row,SMILES,pIC50
1,CSc1ccc2c(c1)N(CCC1CCCCN1C)c1ccccc1S2 (stereo unspecified) [THIORIDAZINE],4.74
2,O=C1CC(c2ccc(O)cc2)Oc2cc(O)c(CN3CCN(CCCN4c5ccccc5Sc5ccccc54)CC3)c(O)c21 (stereo unspecified),< 4.30
3,O=C1CC(c2ccccc2)Oc2cc(O)c(CN3CCN(CCCN4c5ccccc5Sc5ccc(C(F)(F)F)cc54)CC3)c(O)c21 (stereo unspecified),< 4.30
4,CSc1ccc2c(c1)N(CCCN1CCN(Cc3c(O)cc4c(c3O)C(=O)CC(c3ccccc3)O4)CC1)c1ccccc1S2 (stereo unspecified),< 4.30
5,O=C1CC(c2ccccc2)Oc2cc(O)c(CN3CCN(CCCN4c5ccccc5Sc5ccccc54)CC3)c(O)c21 (stereo unspecified),< 4.30
6,CSc1ccc2c(c1)N(CCCN1CCN(Cc3c(O)cc4c(c3O)C(=O)CC(c3ccc(O)cc3)O4)CC1)c1ccccc1S2 (stereo unspecified),< 4.30
7,O=C(CCC(=O)N1CCN(CCCN2c3ccccc3Sc3ccccc32)CC1)OCC#CCOc1no[n+]([O-])c1S(=O)(=O)c1ccccc1,5.05

# Test system: MCF7
# Test: Inhibition of colony formation in human MCF7 cells at 2.83 uM incubated for 14 days with replacement of medium for every 3 or 4 days by crystal violet staining based visual analysis relative to control
# Type: functional
# Settings: not given
row,SMILES,inhibition at 2.83 µM
1,CN1CCN(CCCN2c3ccccc3Sc3ccc(C(F)(F)F)cc32)CC1 [TRIFLUOPERAZINE],63.8%

# Test system: MDA-MB-231
# Test: Inhibition of cell migration of human MDA-MB-231 cells at 5.40 uM incubated for 48 hrs by scratch wound healing assay
# Type: functional, cell-based
# Settings: not given
row,SMILES,inhibition
1,CN1CCN(CCCN2c3ccccc3Sc3ccc(C(F)(F)F)cc32)CC1 [TRIFLUOPERAZINE],Active
